Values of other authors in patent US20070184040A1, “Compositions for delivery of coenzyme Q10” (priority 2006, published 2007).

## COC1=C(OC)C(=O)C(C/C=C(\C)CC/C=C(\C)CC/C=C(\C)CC/C=C(\C)CC/C=C(\C)CC/C=C(\C)CC/C=C(\C)CC/C=C(\C)CC/C=C(\C)CCC=C(C)C)=C(C)C1=O [CoQ10, Coenzyme Q10]
  solubility in most hydrophilic solvents, such as water: very poorly soluble
